Test results from ChEMBL document CHEMBL4808181, “Hydrophobic Pocket Occupation Design of Difluoro-Biphenyl-Diarylpyrimidines as Non-Nucleoside HIV-1 Reverse Transcriptase Inhibitors: from N-Alkylation to Methyl Hopping on the Pyrimidine Ring” (J Med Chem, 2021).

Experiments:
[1] = Toxicity in pregnant mouse assessed as kidney damage at 2 g/kg, ig monitored for 2 weeks by HE staining based assay; assay type: tissue-based; settings: in vivo, po, 2000 mg/kg, 336 h
[2] = Toxicity in healthy female mouse assessed as brain damage at 2 g/kg, ig monitored for 2 weeks by HE staining based assay; assay type: tissue-based; settings: in vivo, po, 2000 mg/kg, 336 h
[3] = Acute toxicity in healthy female mouse assessed as increase in body weight at 2 g/kg, ig; settings: in vivo, po, 2000 mg/kg
[4] = test system: Human immunodeficiency virus type 1 reverse transcriptase (Human immunodeficiency virus 1), Q72547 [K103N]; experiment: Potency index, ratio of EFV EC50 to test compound EC50 for inhibition of HIV-1 p66/p51 reverse transcriptase K103N mutant
[5] = Toxicity in pregnant mouse assessed as spleen damage at 2 g/kg, ig monitored for 2 weeks by HE staining based assay; assay type: tissue-based; settings: in vivo, po, 2000 mg/kg, 336 h
[6] = Inhibition of HIV-1 p66/p51 reverse transcriptase E138K mutant incubated for 40 mins by picogreen dye-based spectrofluorometric analysis; parameters: species or system Human immunodeficiency virus 1
[7] = Half life in Wistar rat at 1 mg/kg, iv; assay type: ADME, organism-based; settings: in vivo
[8] = Acute toxicity in pregnant mouse assessed as stillborn fetus at 2 g/kg, ig; settings: in vivo, po, 2000 mg/kg
[9] = Toxicity in healthy female mouse assessed as spleen damage at 2 g/kg, ig monitored for 2 weeks by HE staining based assay; assay type: tissue-based; settings: in vivo, po, 2000 mg/kg, 336 h
[10] = test system: Human immunodeficiency virus type 1 reverse transcriptase (Human immunodeficiency virus 1), Q72547 [K103N]; experiment: Potency index, ratio of NVP EC50 to test compound EC50 for inhibition of HIV-1 p66/p51 reverse transcriptase K103N mutant
[11] = target: Human immunodeficiency virus type 1 reverse transcriptase (Human immunodeficiency virus 1, UniProt Q72547); experiment: Inhibition of recombinant wild type p66/p51 HIV1 reverse transcriptase incubated for 40 mins by picogreen dye-based spectrofluorometric analysis
[12] = test system: Human immunodeficiency virus 1; experiment: Antiviral activity against HIV-1 infected in human MT-4 cells assessed as reduction in virus-induced cytopathic effect incubated for 5 days by MTT assay; assay type: functional, organism-based; settings: Human immunodeficiency virus 1, MT4, 120 h
[13] = Metabolic stability in rat liver microsomes assessed as half life; assay type: ADME, Microsome
[14] = Selectivity index, ratio of CC50 for cytotoxicity against human MT-4 cells to EC50 for inhibition of HIV-1 p66/51 reverse transcriptase E138K mutant; assay type: toxicity, cell-based; settings: read-out: Ratio CC50/EC50
[15] = Cmax in Wistar rat at 5 mg/kg, po; assay type: ADME, organism-based; parameters: route oral, dose 5 mg/kg; settings: in vivo
[16] = AUC in Wistar rat at 1 mg/kg, iv; assay type: ADME, organism-based; parameters: dose 1 mg/kg; settings: in vivo
[17] = Selectivity index, ratio of CC50 for cytotoxicity against human MT-4 cells to EC50 for inhibition of HIV-1 p66/51 reverse transcriptase Y181C mutant; assay type: toxicity, cell-based; settings: read-out: Ratio CC50/EC50
[18] = Toxicity in healthy female mouse assessed as heart damage at 2 g/kg, ig monitored for 2 weeks by HE staining based assay; assay type: tissue-based; settings: in vivo, po, 2000 mg/kg, 336 h
[19] = target: Human immunodeficiency virus type 1 reverse transcriptase (Human immunodeficiency virus 1, UniProt Q72547, L100I); experiment: Inhibition of HIV-1 p66/p51 reverse transcriptase L100I mutant incubated for 40 mins by picogreen dye-based spectrofluorometric analysis
[20] = Metabolic stability in rat liver microsomes; assay type: ADME, Microsome
[21] = Metabolic stability in mouse liver microsomes; assay type: ADME, Microsome
[22] = Toxicity in pregnant mouse assessed as liver damage at 2 g/kg, ig monitored for 2 weeks by HE staining based assay; assay type: tissue-based; settings: in vivo, po, 2000 mg/kg, 336 h
[23] = Selectivity index, ratio of CC50 for cytotoxicity against human MT-4 cells to EC50 for inhibition of HIV-1 p66/51 reverse transcriptase K103N mutant; assay type: toxicity, cell-based; settings: read-out: Ratio CC50/EC50
[24] = Metabolic stability in human liver microsomes; assay type: ADME, Microsome
[25] = Selectivity index, ratio of CC50 for human MT-4 cells to EC50 for HIV-1 infected in MT-4 cells; assay type: toxicity, cell-based; settings: read-out: Ratio CC50/EC50
[26] = Half life in Wistar rat at 5 mg/kg, po; assay type: ADME, organism-based; settings: in vivo
[27] = Acute toxicity in pregnant mouse assessed as increase in body weight at 2 g/kg, ig; settings: in vivo, po, 2000 mg/kg
[28] = AUCinfinity in Wistar rat at 5 mg/kg, po; assay type: ADME, organism-based; parameters: route oral, time infinity, dose 5 mg/kg; settings: in vivo
[29] = Metabolic stability in human liver microsomes assessed as intrinsic clearance per mg protein; assay type: ADME, Microsome; settings: read-out: CLH
[30] = Acute toxicity in pregnant mouse assessed as behavioral abnormalities at 2 g/kg, ig measured for 2 weeks; settings: in vivo, po, 2000 mg/kg, 336 h
[31] = MRTinfinity in Wistar rat at 5 mg/kg, po; assay type: ADME, organism-based; settings: in vivo
[32] = MRTinfinity in Wistar rat at 1 mg/kg, iv; assay type: ADME, organism-based; settings: in vivo
[33] = Toxicity in healthy female mouse assessed as lung damage at 2 g/kg, ig monitored for 2 weeks by HE staining based assay; assay type: tissue-based; settings: in vivo, po, 2000 mg/kg, 336 h
[34] = Acute toxicity in healthy female mouse assessed as behavioral abnormalities at 2 g/kg, ig measured for 2 weeks; settings: in vivo, po, 2000 mg/kg, 336 h
[35] = target: Human immunodeficiency virus type 1 reverse transcriptase (Human immunodeficiency virus 1, UniProt Q72547, Y181C); experiment: Inhibition of HIV-1 p66/p51 reverse transcriptase Y181C mutant incubated for 40 mins by picogreen dye-based spectrofluorometric analysis
[36] = Acute toxicity in pregnant mouse assessed as abortion at 2 g/kg, ig; settings: in vivo, po, 2000 mg/kg
[37] = Metabolic stability in rat liver microsomes assessed as intrinsic clearance per mg protein; assay type: ADME, Microsome
[38] = Acute toxicity in pregnant mouse assessed as offspring survival rate at 2 g/kg, ig; settings: in vivo, po, 2000 mg/kg
[39] = Toxicity in healthy female mouse assessed as liver damage at 2 g/kg, ig monitored for 2 weeks by HE staining based assay; assay type: tissue-based; settings: in vivo, po, 2000 mg/kg, 336 h
[40] = AUC in Wistar rat at 5 mg/kg, po; assay type: ADME, organism-based; parameters: dose 5 mg/kg; settings: in vivo
[41] = Toxicity in pregnant mouse assessed as heart damage at 2 g/kg, ig monitored for 2 weeks by HE staining based assay; assay type: tissue-based; settings: in vivo, po, 2000 mg/kg, 336 h
[42] = Metabolic stability in mouse liver microsomes assessed as intrinsic clearance per mg protein; assay type: ADME, Microsome
[43] = Toxicity in healthy female mouse assessed as kidney damage at 2 g/kg, ig monitored for 2 weeks by HE staining based assay; assay type: tissue-based; settings: in vivo, po, 2000 mg/kg, 336 h
[44] = target: Human immunodeficiency virus type 1 reverse transcriptase (Human immunodeficiency virus 1, UniProt Q72547, K103N); experiment: Inhibition of HIV-1 p66/p51 reverse transcriptase K103N mutant incubated for 40 mins by picogreen dye-based spectrofluorometric analysis
[45] = Toxicity in pregnant mouse assessed as lung damage at 2 g/kg, ig monitored for 2 weeks by HE staining based assay; assay type: tissue-based; settings: in vivo, po, 2000 mg/kg, 336 h
[46] = Toxicity in pregnant mouse assessed as brain damage at 2 g/kg, ig monitored for 2 weeks by HE staining based assay; assay type: tissue-based; settings: in vivo, po, 2000 mg/kg, 336 h
[47] = Tmax in Wistar rat at 5 mg/kg, po; assay type: ADME, organism-based; settings: in vivo
[48] = Acute toxicity in pregnant mouse assessed as death at 2 g/kg, ig; settings: in vivo, po, 2000 mg/kg
[49] = Selectivity index, ratio of CC50 for cytotoxicity against human MT-4 cells to EC50 for inhibition of HIV-1 p66/51 reverse transcriptase L100I mutant; assay type: toxicity, cell-based; settings: read-out: Ratio CC50/EC50
[50] = Metabolic stability in mouse liver microsomes assessed as half life; assay type: ADME, Microsome
[51] = Acute toxicity in healthy mouse assessed as death at 2 g/kg, ig; settings: in vivo, po, 2000 mg/kg
[52] = AUCinfinity in Wistar rat at 1 mg/kg, iv; assay type: ADME, organism-based; parameters: route intravenous, time infinity, dose 1 mg/kg; settings: in vivo
[53] = Cytotoxicity against in human MT-4 cells after 5 days by MTT assay; assay type: cell-based, MT4; settings: time 5 day

Compound: Cc1cnc(Nc2ccc(C#N)cc2)nc1Nc1c(F)cc(-c2ccc(C#N)cc2)cc1F
- Activity [1]: Non-Toxic
- Activity [2]: Non-Toxic
- Activity [3]: Toxic
- Ratio EC50 [4]: 17
- Activity [5]: Non-Toxic
- EC50 [6]: 8.3 nM
- half-life [7]: 1.18 h
- Activity [8]: Non-Toxic
- Activity [9]: Non-Toxic
- Ratio EC50 [10]: 17
- IC50 [11]: 13 nM
- EC50 [12]: 1 nM
- t1/2 [13]: 0.815 h
- selectivity ratio [14]: > 34200
- Cmax [15]: 38.4 ng/mL
- AUC [16]: 1080 ng·h/mL
- selectivity ratio [17]: > 25500
- Activity [18]: Non-Toxic
- EC50 [19]: 16.3 nM
- k el [20]: 0.000237 s⁻¹
- k el [21]: 0.00025 s⁻¹
- Activity [22]: Non-Toxic
- selectivity ratio [23]: > 53200
- k el [24]: 8.33e-05 s⁻¹
- selectivity ratio [25]: > 208000
- half-life [26]: 2.13 h
- Activity [27]: Toxic
- AUC(0-inf) [28]: 130 ng·h/mL
- microsomal CLint [29]: 5 µL/min/mg
- Activity [30]: Non-Toxic
- MRT inf [31]: 3.5 h
- MRT inf [32]: 0.86 h
- Activity [33]: Non-Toxic
- Activity [34]: Non-Toxic
- EC50 [35]: 11.2 nM
- Activity [36]: Non-Toxic
- CLH [37]: 28.4 µL/min
- Activity [38]: Non-Toxic
- Activity [39]: Non-Toxic
- AUC [40]: 115 ng·h/mL
- Activity [41]: Non-Toxic
- CLH [42]: 30.1 µL/min
- Activity [43]: Non-Toxic
- EC50 [44]: 5.4 nM
- Activity [45]: Non-Toxic
- Activity [46]: Non-Toxic
- Tmax [47]: 0.67 h
- Activity [48]: Non-Toxic
- selectivity ratio [49]: > 17500
- t1/2 [50]: 0.768 h
- Activity [51]: Non-Toxic
- AUC(0-inf) [52]: 1090 ng·h/mL
- CC50 at 120 h [53]: > 285000 nM
